# From patent US20250026759A1 (Merck Sharp & Dohme LLC, priority 2023, published 2025)
# Test system: PBMCs infected with VSV-G pseudotyped HIV virus (VSV-G/pNLG1-P2A-ΔEnv)
# Experiment: cells
# Type: cell-based, human
# Conditions: Homo sapiens, PBMC, read-out: TACK EC50
row,Compound,EC50 [µM]
1,"CC(F)(F)[C@@]1(C#CC2CC2)NC(=O)Nc2cc(Cn3ncc4ccccc43)c(F)cc21 [Example 91, (S)-7-((1H-indazol-1-yl)methyl)-4-(cyclopropylethynyl)-4-(1,1-difluoroethyl)-6-fluoro-3,4-dihydroquinazolin-2(1H)-one]",0.0273
2,"CC(F)(F)[C@@]1(C#CC2CC2)NC(=O)Nc2cc(Cn3nnc4ccccc43)c(F)cc21 [Example 92, (S)-7-((1H-benzo[d][1,2,3]triazol-1-yl)methyl)-4-(cyclopropylethynyl)-4-(1,1-difluoroethyl)-6-fluoro-3,4-dihydroquinazolin-2(1H)-one]",0.0106
3,"Cc1nn(Cc2cc3c(cc2F)[C@@](C#CC2CC2)(C(C)(F)F)NC(=O)N3)c2ccccc12 [Example 93, (S)-4-(cyclopropylethynyl)-4-(1,1-difluoroethyl)-6-fluoro-7-((3-methyl-1H-indazol-1-yl)methyl)-3,4-dihydroquinazolin-2(1H)-one]",0.0285
4,"CC(F)(F)[C@@]1(C#CC2CC2)NC(=O)Nc2cc(Cn3cnc4ccccc43)c(F)cc21 [Example 94, (S)-7-((1H-benzo[d]imidazol-1-yl)methyl)-4-(cyclopropylethynyl)-4-(1,1-difluoroethyl)-6-fluoro-3,4-dihydroquinazolin-2(1H)-one]",0.0442
5,"COc1nn(Cc2cc3c(cc2F)[C@@](C#CC2CC2)(C(C)(F)F)NC(=O)N3)cc1Cl [Example 95, (S)-7-((4-chloro-3-methoxy-1H-pyrazol-1-yl)methyl)-4-(cyclopropylethynyl)-4-(1,1-difluoroethyl)-6-fluoro-3,4-dihydroquinazolin-2(1H)-one]",0.0241
6,"O=C1Nc2cc(CN3Cc4ccccc4C3=O)c(F)cc2[C@@](C#CC2CC2)(C(F)(F)F)N1 [Example 96, (S)-4-(cyclopropylethynyl)-6-fluoro-7-((1-oxoisoindolin-2-yl)methyl)-4-(trifluoromethyl)-3,4-dihydroquinazolin-2(1H)-one]",0.0451
7,"COc1ccc(-c2ccn(Cc3cc4c(cc3F)[C@@](C#CC3CC3)(C(C)(F)F)NC(=O)N4)n2)cc1 [Example 97, (S)-4-(cyclopropylethynyl)-4-(1,1-difluoroethyl)-6-fluoro-7-((3-(4-methoxyphenyl)-1H-pyrazol-1-yl)methyl)-3,4-dihydroquinazolin-2(1H)-one]",0.0453
8,"O=C1Nc2cc(Cn3ccc4c3CCNC4=O)c(F)cc2[C@@](C#CC2CC2)(C(F)(F)F)N1 [Example 98, (S)-4-(cyclopropylethynyl)-6-fluoro-7-((4-oxo-4,5,6,7-tetrahydro-1H-pyrrolo[3,2-c]pyridin-1-yl)methyl)-4-(trifluoromethyl)-3,4-dihydroquinazolin-2(1H)-one]",0.0654
9,"COc1cn(Cc2cc3c(cc2F)[C@@](C#CC2CC2)(C(C)(F)F)NC(=O)N3)nc1N [Example 99, (S)-7-((3-amino-4-methoxy-1H-pyrazol-1-yl)methyl)-4-(cyclopropylethynyl)-4-(1,1-difluoroethyl)-6-fluoro-3,4-dihydroquinazolin-2(1H)-one]",0.0131
10,"NC(=O)c1nccn1Cc1cc2c(cc1F)[C@@](C#CC1CC1)(C(F)(F)F)NC(=O)N2 [Example 100, (S)-1-((4-(cyclopropylethynyl)-6-fluoro-2-oxo-4-(trifluoromethyl)-1,2,3,4-tetrahydroquinazolin-7-yl)methyl)-1H-imidazole-2-carboxamide]",0.0136
11,"Cc1ccn(Cc2cc3c(cc2F)[C@@](C#CC2CC2)(C(F)(F)F)NC(=O)N3)n1 [Example 101, (S)-4-(cyclopropylethynyl)-6-fluoro-7-((3-methyl-1H-pyrazol-1-yl)methyl)-4-(trifluoromethyl)-3,4-dihydroquinazolin-2(1H)-one]",0.0138
12,"CC(F)(F)[C@@]1(C#CC2CC2)NC(=O)Nc2cc(Cn3ccc(C=O)n3)c(F)cc21 [Example 102, (S)-1-((4-(cyclopropylethynyl)-4-(1,1-difluoroethyl)-6-fluoro-2-oxo-1,2,3,4-tetrahydroquinazolin-7-yl)methyl)-1H-pyrazole-3-carbaldehyde]",0.0268
13,"CC(F)(F)[C@@]1(C#CC2CC2)NC(=O)Nc2cc(Cn3cnc(N)n3)c(F)cc21 [Example 106, (S)-7-((3-amino-1H-1,2,4-triazol-1-yl)methyl)-4-(cyclopropylethynyl)-4-(1,1-difluoroethyl)-6-fluoro-3,4-dihydroquinazolin-2(1H)-one]",0.0168
14,"Cc1nn(C)c(=O)n1Cc1cc2c(cc1F)[C@@](C#CC1CC1)(C(C)(F)F)NC(=O)N2 [Example 108, (S)-4-(cyclopropylethynyl)-4-(1,1-difluoroethyl)-7-((1,3-dimethyl-5-oxo-1,5-dihydro-4H-1,2,4-triazol-4-yl)methyl)-6-fluoro-3,4-dihydroquinazolin-2(1H)-one]",0.0183
15,"CC(F)(F)[C@@]1(C#CC2CC2)NC(=O)Nc2cc(Cn3nc[nH]c3=O)c(F)cc21 [Example 109, (S)-4-(cyclopropylethynyl)-4-(1,1-difluoroethyl)-6-fluoro-7-((5-oxo-4,5-dihydro-1H-1,2,4-triazol-1-yl)methyl)-3,4-dihydroquinazolin-2(1H)-one]",0.0209
16,"CN1CC(=O)N(Cc2cc3c(cc2F)[C@@](C#CC2CC2)(C(C)(F)F)NC(=O)N3)C1=O [Example 110, (S)-3-((4-(cyclopropylethynyl)-4-(1,1-difluoroethyl)-6-fluoro-2-oxo-1,2,3,4-tetrahydroquinazolin-7-yl)methyl)-1-methylimidazolidine-2,4-dione]",0.0439
17,"CN(Cc1cc2c(cc1F)[C@@](C#CC1CC1)(C(C)(F)F)NC(=O)N2)c1cc[nH]n1 [Example 111, (S)-4-(cyclopropylethynyl)-4-(1,1-difluoroethyl)-6-fluoro-7-((methyl(1H-pyrazol-3-yl)amino)methyl)-3,4-dihydroquinazolin-2(1H)-one]",0.103
18,"COCc1ccn(Cc2cc3c(cc2F)[C@@](C#CC2CC2)(C(C)(F)F)N(C)C(=O)N3)n1 [Example 112, (S)-4-(cyclopropylethynyl)-4-(1,1-difluoroethyl)-6-fluoro-7-((3-(methoxymethyl)-1H-pyrazol-1-yl)methyl)-3-methyl-3,4-dihydroquinazolin-2(1H)-one]",0.0181
19,"COc1nn(Cc2cc3c(cc2F)[C@@](C#CC2CC2)(C(C)(F)F)NC(=O)N3)cc1F [Example 115, (S)-4-(cyclopropylethynyl)-4-(1,1-difluoroethyl)-6-fluoro-7-((4-fluoro-3-methoxy-1H-pyrazol-1-yl)methyl)-3,4-dihydroquinazolin-2(1H)-one]",0.0198
20,"Cc1nnn(Cc2cc3c(cc2F)[C@@](C#CC2CC2)(C(F)(F)F)NC(=O)N3)n1 [Example 118, (S)-4-(cyclopropylethynyl)-6-fluoro-7-((5-methyl-2H-tetrazol-2-yl)methyl)-4-(trifluoromethyl)-3,4-dihydroquinazolin-2(1H)-one]",0.0364
21,"O=C1Nc2cc(Cc3[nH]nc4ccccc34)c(F)cc2[C@@](C#CC2CC2)(C(F)(F)F)N1 [Example 119, (S)-7-((2H-indazol-3-yl)methyl)-4-(cyclopropylethynyl)-6-fluoro-4-(trifluoromethyl)-3,4-dihydroquinazolin-2(1H)-one]",0.0578
